Reference: patent US20100272829A1, “COMPOSITION FOR TRANSDERMAL OR TRANSMUCOSAL ADMINISTRATION” (priority 2007, published 2010)

Tests used:
[1] = Solubility in artificial seawater (zinc determined by atomic absorption spectrometry); assay type: physicochemical
Experimental: The solubility of samples shown below in artificial sweater was measured.
Artificial sweater (pH of 7.8) was added to each sample shown below to make total amount of 500 mL, followed by shaking at 20° C. for 24 hours. After filtration, determination of zinc was performed by subjecting the filtrate to atomic absorption spectrometry.

[2] = system: Malassezia furfur NBRC 0656; assay: Antibacterial test I (MIC) by a liquid culture method; assay type: cell-based; conditions: Sabouraud glucose medium + 1% olive oil, shaking at 30° C., 10^6cfu/mL
Experimental: With respect to the composition of zinc pyrithione and hydrous titanium oxide of Example 2, an antibacterial test (MIC) against Malassezia furfur by a liquid culture method was performed in comparison with zinc pyrithione.
Sample 17: Composition of zinc pyrithione (manufactured by Arch Chemicals, Inc.) and hydrous titanium oxide (Example 2) Sample 18: Zinc pyrithione (manufactured by Arch Chemicals, Inc.) Test fungi: Malassezia furfur NBRC 0656 Test medium: 1% olive oil is added to Sabouraud glucose medium Test conditions: shaking culture at 30° C. for 4 days (120 rpm)

[3] = system: Malassezia furfur NBRC 0656; assay: Antibacterial test II (MIC) by an agar medium; assay type: cell-based; conditions: YM agar medium added with olive oil, 28° C., 10^5cfu/mL
Experimental: With respect to the composition of zinc pyrithione and hydrous titanium oxide (Example 3), an antibacterial test (MIC) against Malassezia furfur by an agar medium was performed in comparison with zinc pyrithione.
Sample 19: Composition of zinc pyrithione (manufactured by Kolon Life Science Inc.) and hydrous titanium oxide (Example 3) Sample 20: Zinc pyrithione (manufactured by Kolon Life Science Inc.) Test fungi: Malassezia furfur NBRC 0656 Test medium: YM agar medium added with olive oil Test conditions: culture at 28° C. for 7 days

[4] = Yellowness (b* value) of water suspension samples allowed to stand outside for 10 days (photolysis); assay type: physicochemical; conditions: suspension in distilled water, dried and ground
Experimental: The following water suspension samples are charged in a glass bottle, allowed to stand outside for 10 days, dried and ground, and then yellowness (b* value) was measured by a colorimeter.

[5] = artificial seawater pH 7.8, shaking at 20° C. for 24 hours, filtrate

zinc pyrithione [Sample 2]
Solubility in artificial seawater I: Quantitative value of zinc [1, 5]: 1.16 µg/mL
Solubility in artificial seawater I: Value in terms of zinc pyrithione [1, 5]: 5.64 µg/mL
MIC, 2 days ([2]; 2 days): 6.25 µg/mL
MIC, 4 days ([2]; 4 days): 6.25 µg/mL

zinc pyrithione [Sample 6]
Solubility in artificial seawater II: Value in terms of zinc pyrithione ([1]; artificial seawater pH 7.8, 20° C., 24 hours): 5.24 µg/mL
Solubility in artificial seawater II: Quantitative value of zinc ([1]; artificial seawater pH 7.8, 20° C., 24 hours, for samples 7 and 8 zinc derived from zinc pyrithione and zinc oxide): 1.07 µg/mL
MIC, 7 days [3]: 6.25 µg/mL

zinc pyrithione [Sample 9]
Yellowness (b* value) [4]: 8.80
